ChEMBL document CHEMBL5625276, “Antascomicin B stabilizes FKBP51-Akt1 complexes as a molecular glue” (Bioorg Med Chem Lett, 2024)
Activity calls are given as the source filed them. The rule behind the calls is not given here.

How the values were obtained:
HEK293T [1] = assay: Stabilization of FLAG tagged human FKBP51 P120pBpa incorporation mutant/human Akt complex in HEK293T cells assessed as induction of photocrosslinking adduct formation at 1 uM pretreated with compound followed by UV irradiation for 30 mins by immunoprecipitation based Western blot analysis; type: cell-based
[2] = molecular target: T1, Peptidyl-prolyl cis-trans isomerase FKBP5 (Homo sapiens, UniProt Q13451); assay: Binding affinity to human FKBP51 FK1 domain expressed in Escherichia coli BL21 DE3 Gold assessed as dissociation constant incubated for 30 mins by competitive fluorescence polarization assay
T1 sequence (Q13451 whole entry): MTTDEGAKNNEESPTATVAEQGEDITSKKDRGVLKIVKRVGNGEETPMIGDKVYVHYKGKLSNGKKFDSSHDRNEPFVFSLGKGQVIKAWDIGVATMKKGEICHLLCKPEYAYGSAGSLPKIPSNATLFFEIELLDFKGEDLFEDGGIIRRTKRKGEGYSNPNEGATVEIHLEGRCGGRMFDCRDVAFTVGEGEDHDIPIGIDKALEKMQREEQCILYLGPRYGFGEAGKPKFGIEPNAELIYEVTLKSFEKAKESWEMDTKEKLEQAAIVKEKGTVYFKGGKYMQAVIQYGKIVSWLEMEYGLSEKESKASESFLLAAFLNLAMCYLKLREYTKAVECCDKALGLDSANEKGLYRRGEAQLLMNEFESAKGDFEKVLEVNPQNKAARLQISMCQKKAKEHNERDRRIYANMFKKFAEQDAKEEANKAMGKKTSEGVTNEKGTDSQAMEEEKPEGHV

[3] = molecular target: T2, Peptidyl-prolyl cis-trans isomerase FKBP4 (Homo sapiens, UniProt Q02790); assay: Binding affinity to human FKBP52 FK1 domain expressed in Escherichia coli BL21 DE3 Gold assessed as dissociation constant incubated for 30 mins by competitive fluorescence polarization assay
T2 sequence (Q02790 whole entry): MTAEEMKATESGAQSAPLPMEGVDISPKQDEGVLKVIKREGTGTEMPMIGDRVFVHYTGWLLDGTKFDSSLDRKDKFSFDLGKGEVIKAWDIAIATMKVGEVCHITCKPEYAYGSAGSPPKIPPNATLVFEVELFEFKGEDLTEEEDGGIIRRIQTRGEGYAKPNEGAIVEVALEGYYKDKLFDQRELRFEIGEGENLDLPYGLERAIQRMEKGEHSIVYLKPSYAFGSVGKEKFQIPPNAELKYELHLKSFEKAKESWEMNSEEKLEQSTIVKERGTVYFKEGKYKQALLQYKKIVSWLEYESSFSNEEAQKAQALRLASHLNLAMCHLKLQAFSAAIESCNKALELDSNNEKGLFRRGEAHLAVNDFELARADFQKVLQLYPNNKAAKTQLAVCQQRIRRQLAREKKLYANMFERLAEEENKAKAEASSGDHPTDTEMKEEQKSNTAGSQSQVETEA

HEK293T [4] = assay: Stabilization of FLAG-tagged human FKBP51 K52pBpa incorporation mutant/human Akt T308A/S473A mutant in HEK293T cells assessed as photocrosslinking adduct formation at 1 uM pretreated with compound followed by UV irradiation for 30 mins by immunoprecipitation based Western blot analysis; type: cell-based
[5] = molecular target: Peptidyl-prolyl cis-trans isomerase FKBP1B (Homo sapiens, UniProt P68106); assay: Binding affinity to human FKBP12.6 expressed in Escherichia coli BL21 DE3 Gold assessed as dissociation constant incubated for 30 mins by competitive fluorescence polarization assay
HEK293T [6] = assay: Stabilization of FLAG-tagged human HSP90 binding incompetent FKBP51 K352A/R356A mutant/human Akt complex in HEK293T cells assessed as increase in Akt co-immunoprecipitation at 1 uM by Western blot analysis; type: cell-based
HEK293T [7] = assay: Stabilization of FLAG tagged human FKBP51 K52pBpa incorporation mutant/human Akt complex in HEK293T cells assessed as increase in photocrosslinking at 1 uM pretreated with compound followed by UV irradiation for 30 mins by immunoprecipitation based Western blot analysis; type: cell-based
HEK293T [8] = assay: Stabilization of FLAG tagged human FKBP51 E75pBpa incorporation mutant/human Akt complex in HEK293T cells assessed as increase in photocrosslinking pretreated with compound followed by UV irradiation by immunoprecipitation based Western blot analysis; type: cell-based
HEK293T [9] = assay: Stabilization of FLAG-tagged human FKBP51 K52pBpa incorporation mutant/human Akt T308D mutant in HEK293T cells assessed as photocrosslinking adduct formation at 1 uM pretreated with compound followed by UV irradiation for 30 mins by immunoprecipitation based Western blot analysis; type: cell-based
HEK293T [10] = assay: Stabilization of FLAG tagged human FKBP51 N74pBpa incorporation mutant/human Akt complex in HEK293T cells assessed as increase in photocrosslinking pretreated with compound followed by UV irradiation by immunoprecipitation based Western blot analysis; type: cell-based
HEK293T [11] = assay: Stabilization of FLAG-tagged human FKBP51 K52pBpa incorporation mutant/human Akt S473D mutant in HEK293T cells assessed as photocrosslinking adduct formation at 1 uM pretreated with compound followed by UV irradiation for 30 mins by immunoprecipitation based Western blot analysis; type: cell-based
HEK293T [12] = assay: Stabilization of FLAG-tagged wild type human FKBP51/human Akt complex in HEK293T cells assessed as increase in Akt co-immunoprecipitation at 1 uM by Western blot analysis; type: cell-based
HEK293T [13] = assay: Stabilization of FLAG tagged human FKBP51 P120pBpa incorporation mutant/human Akt complex in HEK293T cells assessed as increase in Akt1 coimmunoprecipitation at 1 uM in absence of UV irradiation by immunoprecipitation based Western blot analysis; type: cell-based
HEK293T [14] = assay: Stabilization of FLAG tagged human FKBP51 P120pBpa incorporation mutant/human Akt complex in HEK293T cells assessed as increase in photocrosslinking at 1 uM pretreated with compound followed by UV irradiation for 30 mins by immunoprecipitation based Western blot analysis; type: cell-based
HEK293T [15] = assay: Stabilization of FLAG-tagged human FKBP51 K52pBpa incorporation mutant/human Akt T308A mutant in HEK293T cells assessed as photocrosslinking adduct formation at 1 uM pretreated with compound followed by UV irradiation for 30 mins by immunoprecipitation based Western blot analysis; type: cell-based
HEK293T [16] = assay: Stabilization of FLAG-tagged human FKBP51 K52pBpa incorporation mutant/human Akt S473A mutant in HEK293T cells assessed as photocrosslinking adduct formation at 1 uM pretreated with compound followed by UV irradiation for 30 mins by immunoprecipitation based Western blot analysis; type: cell-based
HEK293T [17] = assay: Stabilization of FLAG-tagged human FKBP51 K52pBpa incorporation mutant/wild type Akt in HEK293T cells assessed as photocrosslinking adduct formation at 1 uM pretreated with compound followed by UV irradiation for 30 mins by immunoprecipitation based Western blot analysis; type: cell-based
HEK293T [18] = assay: Stabilization of FLAG tagged human FKBP51 K52pBpa incorporation mutant/human Akt complex in HEK293T cells assessed as increase in Akt1 coimmunoprecipitation at 1 uM in absence of UV irradiation by immunoprecipitation based Western blot analysis; type: cell-based
[19] = molecular target: Peptidyl-prolyl cis-trans isomerase FKBP1A (Homo sapiens, UniProt P62942); assay: Binding affinity to human FKBP12 expressed in Escherichia coli BL21 DE3 Gold assessed as dissociation constant incubated for 30 mins by competitive fluorescence polarization assay
Sequence of Peptidyl-prolyl cis-trans isomerase FKBP1A (P62942 whole entry): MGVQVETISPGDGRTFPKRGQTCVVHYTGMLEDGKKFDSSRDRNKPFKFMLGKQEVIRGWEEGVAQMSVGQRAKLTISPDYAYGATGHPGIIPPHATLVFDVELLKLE

Sequence of Peptidyl-prolyl cis-trans isomerase FKBP1B (P68106 whole entry): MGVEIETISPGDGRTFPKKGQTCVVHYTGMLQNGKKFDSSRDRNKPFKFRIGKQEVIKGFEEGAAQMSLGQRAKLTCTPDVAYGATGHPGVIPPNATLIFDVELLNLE

CO[C@H]1C[C@@H]2CC[C@@H](C)[C@@](O)(O2)C(=O)C(=O)N2CCCC[C@H]2C(=O)O[C@H]([C@H](C)C[C@@H]2CC[C@@H](O)[C@H](OC)C2)CC(=O)[C@H](C)/C=C(\C)[C@@H](O)[C@@H](OC)C(=O)[C@H](C)C[C@H](C)/C=C/C=C/C=C/1C [SIROLIMUS]
Activity (HEK293T [1]): inactive | Kd [2]: 8.5 nM | Kd [3]: 12 nM

C=CC[C@@H]1/C=C(\C)C[C@H](C)C[C@H](OC)[C@H]2O[C@@](O)(C(=O)C(=O)N3CCCC[C@H]3C(=O)O[C@H](/C(C)=C/[C@@H]3CC[C@@H](O)[C@H](OC)C3)[C@H](C)[C@@H](O)CC1=O)[C@H](C)C[C@@H]2OC [TACROLIMUS ANHYDROUS]
Activity (HEK293T [1]): inactive | Kd [2]: 75.9 nM

C[C@@H]1/C=C/CC/C=C/C(=O)[C@H](C)[C@@H]2CC[C@@H](C)[C@@](O)(O2)C(=O)C(=O)N2CCCC[C@H]2C(=O)O[C@H]([C@H](C)C[C@@H]2CC[C@@H](O)[C@H](O)[C@H]2O)CC1
Activity (HEK293T [4]): Active | Kd [5]: 0.38 nM | Activity (HEK293T [6]): Active | Activity (HEK293T [1]): Active | Activity (HEK293T [7]): Active | Activity (HEK293T [8]): Active | Activity (HEK293T [9]): Active | Activity (HEK293T [10]): Active | Kd [2]: 6.7 nM | Activity (HEK293T [11]): Active | Activity (HEK293T [12]): Active | Activity (HEK293T [13]): Active | Activity (HEK293T [14]): Active | Activity (HEK293T [15]): Active | Kd [3]: 1.2 nM | Activity (HEK293T [16]): Active | Activity (HEK293T [17]): Active | Activity (HEK293T [18]): Active | Kd [19]: 0.03 nM
